Experimental data published in BindingDB's records for doi:10.1042/0264-6021:3510095 (University of Dundee, 2001).

Experiment: Inhibition of His-tagged human PDK1 expressed in Sf21 cells

CCCCCCOC(=O)[C@@]1(O)C[C@H]2O[C@]1(C)n1c3ccccc3c3c4c(c5c6ccccc6n2c5c31)C(=O)NC4 [KT-5720]
IC50: 300 nM
